Experimental data published in patent US20260272934A1 (The United States of America, as represented by the …, priority 2023, published 2026).
Where two headings read alike, the source gives them in different places.

Assays:
[1] = tested on: multiple myeloma-derived L363 cells; assay: Colorimetric MTS cell viability assay; type: cell-based; details: for GI50: Homo sapiens, L-363, N.S. = Not significant, read-out: Cell efficacy (GI50) Mean ± SD; for Cell efficacy (GI50) Mean ± SD: N.S. = Not significant
Excerpt: • *Data from Park, J. E., et al {Park, 2023 #3387}. **Data from Alverez C. N., et al {Alverez, 2020 #3186}. N. S., Not significant; N. D., Not determined. ^a IC50 values determined from at least three independent experiments except as noted in parentheses. b A colorimetric MTS cell viability assay carried out using multiple myeloma-derived L363 cells.

[2] = target: T1, full-length Plk1 / biotinylated PBIP1 phospho-T78 peptide interaction (Homo sapiens, UniProt P53350); assay: ELISA-based PBD1-binding inhibition assay; details: at least three independent experiments; read-out: ELISA (IC50) Mean ± SEM
T1 construct: HA; EGFP; expressed in transfected cells; host or cells: HEK293A cells infected with adenovirus; total lysates

[3] = Solubility remark in Table 1; type: physicochemical
PBD1 = PBD1 (Homo sapiens, UniProt P53350); assay: FP-based inhibition assay; type: binding; details: read-out: PBD1 IC50 ± SD
Protocol: In the following, PBD1-3 fluorescence polarization (FP) binding assays were carried out for determining the Plk1 specificity. […] All samples were analyzed approximately 30 min after reaction in a 384-well format using the SpectraMax Paradigm multi-mode microplate detection platform (Molecular Devices). Data were analyzed after carrying out at least three independent experiments using GraphPad Prism software version 7.

Plk2 PBD = assay: FP-based inhibition assay; type: binding; details: N.S. = Not significant
Protocol: (§1) In the following, PBD1-3 fluorescence polarization (FP) binding assays were carried out for determining the Plk1 specificity. FP assays were carried out essentially as described previously {Liu, 2011 #2790; Qian, 2014 #1416}. All samples were analyzed approximately 30 min after reaction in a 384-well format using the SpectraMax Paradigm multi-mode microplate detection platform (Molecular Devices). Data were analyzed after carrying out at least three independent experiments using GraphPad Prism software version 7.

Plk3 PBD = assay: FP-based inhibition assay; type: binding; details: N.S. = Not significant
Protocol: as §1

[4] = tested on: multiple myeloma-derived L363 cells; details: MTS, *Data from Park, J. E., cited from earlier work
[5] = target: T1, full-length Plk1 / biotinylated PBIP1 phospho-T78 peptide interaction; details: *Data from Park, J. E., et al 2023; read-out: ELISA (IC50) Mean ± SEM; cited from earlier work
[6] = *Data from Park, J. E., et al 2023; cited from earlier work

T1 sequence (P53350 whole entry): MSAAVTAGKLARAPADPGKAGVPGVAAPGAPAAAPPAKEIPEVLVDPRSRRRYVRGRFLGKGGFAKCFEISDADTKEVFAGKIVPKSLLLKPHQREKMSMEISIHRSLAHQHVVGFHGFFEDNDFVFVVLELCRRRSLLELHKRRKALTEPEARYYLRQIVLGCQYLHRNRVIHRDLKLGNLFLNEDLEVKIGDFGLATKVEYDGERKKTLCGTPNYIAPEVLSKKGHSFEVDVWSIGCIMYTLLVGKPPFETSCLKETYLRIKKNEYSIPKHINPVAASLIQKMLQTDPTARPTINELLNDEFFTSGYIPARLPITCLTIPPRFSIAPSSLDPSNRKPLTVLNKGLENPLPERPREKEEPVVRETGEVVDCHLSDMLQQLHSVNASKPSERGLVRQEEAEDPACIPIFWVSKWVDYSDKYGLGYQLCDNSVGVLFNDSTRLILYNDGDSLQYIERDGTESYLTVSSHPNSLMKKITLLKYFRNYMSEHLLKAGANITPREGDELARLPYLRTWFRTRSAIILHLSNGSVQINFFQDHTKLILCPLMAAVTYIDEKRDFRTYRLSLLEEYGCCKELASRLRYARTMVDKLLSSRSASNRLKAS
PBD1, sequence (P53350 371-594 limits assumed): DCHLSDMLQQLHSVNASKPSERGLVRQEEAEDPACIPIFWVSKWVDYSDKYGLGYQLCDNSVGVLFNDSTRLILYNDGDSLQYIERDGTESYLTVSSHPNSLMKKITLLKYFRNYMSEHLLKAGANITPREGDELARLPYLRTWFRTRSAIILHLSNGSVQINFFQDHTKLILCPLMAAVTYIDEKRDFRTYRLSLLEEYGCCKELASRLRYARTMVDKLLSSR

In the case of `CCCn1c(=O)c2oc3cccc(F)c3c2n2c(Sc3c([N+](=O)[O-])ncn3C)nnc12` [Compound 10, 10-Fluoro-1-((1-methyl-4-nitro-1H-imidazol-5-yl)thio)-4-propylbenzofuro[2,3-e][1,2,4]triazolo[4,3-a]pyrimidin-5 (4H)-one], the GI50 [1] is reported as 7.53 ± 0.43 µM and the IC50 [2] is reported as over 50 µM.
In the case of `Cc1cc2c(s1)c(=O)n(CC1CC1)c1nnc(Sc3c([N+](=O)[O-])ncn3C)n21` [Compound 6, 4-(Cyclopropylmethyl)-7-methyl-1-((1-methyl-4-nitro-1H-imidazol-5-yl)thio) thieno[2,3-e][1,2,4]triazolo[4,3-a]pyrimidin-5 (4H)-one], the “solubility” value [3] is reported as “low solubility”, the GI50 [1] is reported as 3.13 ± 0.15 µM and the IC50 [2] is reported as over 50 µM.
For `CCCn1c(=O)c2sc(C)cc2n2c(=S)[nH]nc12` [Compound 3], the IC50 (PBD1) was 0.0102 ± 0.0015 µM, the “Plk2 PBD IC50 ± SD” value (Plk2 PBD) was “N.S” and the “Plk3 PBD IC50 ± SD” value (Plk3 PBD) was “N.S”. For the same compound, the “Cell efficacy (GI50) Mean ± SD” value ([4]; et al 2023) was “N.S” and the IC50 [5] was 2.15 ± 0.13 µM.
`CCCn1c(=O)c2oc3ccccc3c2n2c(Sc3c([N+](=O)[O-])ncn3C)nnc12` [Compound 8, 1-((1-Methyl-4-nitro-1H-imidazol-5-yl)thio)-4-propylbenzofuro[2,3-e][1,2,4]triazolo[4,3-a]pyrimidin-5(4H)-one] gave a GI50 [1] of 8.31 ± 0.56 µM and an IC50 [2] of over 50 µM.
In the case of `CCCn1c(=O)c2sccc2n2c(Sc3c([N+](=O)[O-])ncn3C)nnc12` [Compound 12, 1-((1-Methyl-4-nitro-1H-imidazol-5-yl)thio)-4-propylthieno[2,3-e][1,2,4]triazolo[4,3-a]pyrimidin-5 (4H)-one], the “solubility” value [3] is reported as “moderate solubility”, the GI50 [1] is reported as 8.4 ± 0.74 µM and the IC50 [2] is reported as over 50 µM.
In the case of `CCCn1c(=O)c2sc(C(C)(C)C)cc2n2c(Sc3c([N+](=O)[O-])ncn3C)nnc12` [Compound 16, 7-(tert-Butyl)-1-((1-methyl-4-nitro-1H-imidazol-5-yl)thio)-4-propylthieno[2,3-e][1,2,4]triazolo[4,3-a]pyrimidin-5 (4H)-one], the “solubility” value [3] is reported as “moderate solubility”, the GI50 [1] is reported as 4.19 ± 0.15 µM and the IC50 [2] is reported as over 50 µM.
`O=C(CCCCC1SCC2NC(=O)NC21)NCCOCCOCCOCCOCCC(=O)NCCCn1c(=O)c2cc(F)ccc2n2c(=S)[nH]nc12` (centres unmarked) [Compound 22, N-(3-(7-Fluoro-5-oxo-1-thioxo-1,2-dihydro-[1,2,4]triazolo[4,3-a]quinazolin-4 (5H)-yl)propyl)-1-(5-(2-oxohexahydro-1H-thieno[3,4-d]imidazol-4-yl)pentanamido)-3,6,9,12-tetraoxapentadecan-15-amide] gave an IC50 [2] of 9.32 ± 0.17 µM.
For `CC(=O)N1CCC[C@H]1C(=O)N[C@@H](CC(C)C)C(=O)N[C@@H](Cc1cnc[nH]1)C(=O)N[C@@H](CO)C(=O)N[C@H](C(=O)O)[C@@H](C)O` [Compound 1, PLHST, reference compound], the “Cell efficacy (GI50) Mean ± SD” value [1] was “N.S”.
For `CCCn1c(=O)c2sc(Cl)cc2n2c(Sc3c([N+](=O)[O-])ncn3C)nnc12` [Compound 14, 7-Chloro-1-((1-methyl-4-nitro-1H-imidazol-5-yl)thio)-4-propylthieno[2,3-e][1,2,4]triazolo[4,3-a]pyrimidin-5 (4H)-one], the GI50 [1] was 6.04 ± 0.17 µM and the IC50 [2] was over 50 µM.
With `CC(=O)N1CCC[C@H]1C(=O)N[C@@H](CC(C)C)C(=O)N[C@@H](Cc1cnc[nH]1)C(=O)N[C@@H](CO)C(=O)N[C@H](C(=O)O)[C@@H](C)OP(=O)(O)O` [Compound 2, PLHSpT, reference compound] the “Plk2 PBD IC50 ± SD” value (Plk2 PBD) was “N.S”, the “Plk3 PBD IC50 ± SD” value (Plk3 PBD) was “N.S” and the “Cell efficacy (GI50) Mean ± SD” value [1] was “N.S”.
`CCCn1c(=O)c2sc3ccccc3c2n2c(Sc3c([N+](=O)[O-])ncn3C)nnc12` [Compound 18, 1-((1-Methyl-4-nitro-1H-imidazol-5-yl)thio)-4-propylbenzo[4,5]thieno[2,3-e][1,2,4]triazolo[4,3-a]pyrimidin-5 (4H)-one] showed a GI50 [1] of 7.05 ± 0.27 µM and an IC50 [2] of over 50 µM.
In the case of `CCCn1c(=O)c2sc(C)cc2n2c(Sc3c([N+](=O)[O-])ncn3C)nnc12` [Compound 4], the GI50 ([4]; et al 2023, read-out: Cell efficacy (GI50) Mean ± SD) is listed as 4.88 ± 0.1 µM, the “solubility” value [6] is listed as “low solubility” and the IC50 [5] is listed as over 50 µM.
For `Cc1cc2c(s1)c(=O)n(CC1CC1)c1n[nH]c(=S)n21` [Compound 5, 4-(Cyclopropylmethyl)-7-methyl-1-thioxo-2,4-dihydrothieno[2,3-e][1,2,4]triazolo[4,3-a]pyrimidin-5 (1H)-one], the IC50 (PBD1) was 0.0128 ± 0.0026 µM, the “Plk2 PBD IC50 ± SD” value (Plk2 PBD) was “N.S” and the “Plk3 PBD IC50 ± SD” value (Plk3 PBD) was “N.S”. For the same compound, the “Cell efficacy (GI50) Mean ± SD” value [1] was “N.S” and the IC50 [2] was 1.66 ± 0.04 µM.
